Measured values: patent US20200289474A1, “METHODS OF TREATING PAIN WITH A THIAZOLINE ANTI-HYPERALGESIC” (priority 2019, published 2020)
“Also recorded” adds a separate entry of the source.

Assays:
[1] = test system: incision-induced hyperalgesia; experiment: mouse incisional model (mimicking the Brennan protocol); assay type: in vivo; settings: 10 mg/kg IP QD, Days 1 and 3 after incision
Method: In a mouse incisional model (mimicking the Brennan protocol), animals were baselined for mechanical thresholds prior to incision and then given a daily dose of Compound 1 (10 mg/kg IP QD) or vehicle for 7 days.

[2] = stability in hepatocytes; assay type: in vitro ADME
Text: Further metabolism work in additional species will be undertaken.

[3] = rat pharmacokinetics after single PO dose; assay type: in vivo; settings: for Compound 1 Concentration in Rat Plasma / Compound 1 Concentration in Rat Plasma, Average / mean Cmax / t1/2: 100 mg/kg single PO; for Compound 1 Concentration in Rat Plasma: individual animals
Method: In both assays, a deuterated (Compound 1-d4) internal standard was used.
The objective of this non-GLP study was to determine the pharmacokinetics of Compound 1 after a single oral (gavage) dose in rats, and to determine if Compound 1 undergoes epimerization in the rat. Compound 1 was administered to CD® IGS [Crl:CD(SD)] (Sprague Dawley) rats (5/sex/group) as a single oral gavage dose of 100 mg/kg in a vehicle of 0.5% aqueous HPMC. Rats were dosed at a dose volume of 10 mL/kg body weight.

[4] = test system: peroxynitrite (PN); experiment: chemical-based assays of peroxynitrite (PN) oxidation; assay type: biochemical; settings: chemical-based assay
[5] = test system: STZ-induced mechanical allodynia; experiment: streptozotocin (STZ)-induced diabetic rats, first experiment; assay type: in vivo, rat
Method: FIG. 14 illustrates non-limiting reversal of mechanical hypersensitivity by Compound 1 in a diabetic neuropathy model, in accordance with various embodiments. Streptozotocin (STZ) destroys insulin-producing cells and generates a diabetic phenotype in […]. Animals were dosed with STZ on day −7. By day 0 animals are hyperglycemic and hyperalgesic (day 0 BL).
(§1) Experiments were conducted to determine the effect of Compound 1 in streptozotocin (STZ)-induced diabetic rats. In the first experiment, after obtaining mechanical threshold baselines, STZ (50 mg/kg IV) was administered (Day −7). Two days later, blood glucose levels were measured and animals that were hyperglycemic (>250 mg/dL) continued in the study. On Day 0 the baseline for mechanical thresholds prior to dosing with test articles was established for the rats. Compound 1 (10, 30, and 100 mg/kg PO), gabapentin (100 mg/kg PO) or vehicle was then administered daily for 5 days. On Day 0 mechanical thresholds were obtained at 1, 3, and 6 h post-dose. On Day 1 mechanical thresholds were measured immediately prior to dosing and then 3 h post-dose. The same regimen was followed on Day 3.

[6] = molecular target: T1, P-gp (Homo sapiens, UniProt P08183); experiment: transporter inhibition, Caco-2 cells, digoxin transport; assay type: in vitro ADME
T1 construct: Caco-2 cells; endogenous in cells; host or cells: Caco-2 cells

[7] = molecular target: T2, OATP1B1 (Homo sapiens, UniProt Q9Y6L6); experiment: transporter inhibition, HEK293 cells, probe accumulation; assay type: in vitro ADME
T2 construct: expressed in transfected cells; host or cells: HEK293 cells
T2 sequence (Q9Y6L6 1-691): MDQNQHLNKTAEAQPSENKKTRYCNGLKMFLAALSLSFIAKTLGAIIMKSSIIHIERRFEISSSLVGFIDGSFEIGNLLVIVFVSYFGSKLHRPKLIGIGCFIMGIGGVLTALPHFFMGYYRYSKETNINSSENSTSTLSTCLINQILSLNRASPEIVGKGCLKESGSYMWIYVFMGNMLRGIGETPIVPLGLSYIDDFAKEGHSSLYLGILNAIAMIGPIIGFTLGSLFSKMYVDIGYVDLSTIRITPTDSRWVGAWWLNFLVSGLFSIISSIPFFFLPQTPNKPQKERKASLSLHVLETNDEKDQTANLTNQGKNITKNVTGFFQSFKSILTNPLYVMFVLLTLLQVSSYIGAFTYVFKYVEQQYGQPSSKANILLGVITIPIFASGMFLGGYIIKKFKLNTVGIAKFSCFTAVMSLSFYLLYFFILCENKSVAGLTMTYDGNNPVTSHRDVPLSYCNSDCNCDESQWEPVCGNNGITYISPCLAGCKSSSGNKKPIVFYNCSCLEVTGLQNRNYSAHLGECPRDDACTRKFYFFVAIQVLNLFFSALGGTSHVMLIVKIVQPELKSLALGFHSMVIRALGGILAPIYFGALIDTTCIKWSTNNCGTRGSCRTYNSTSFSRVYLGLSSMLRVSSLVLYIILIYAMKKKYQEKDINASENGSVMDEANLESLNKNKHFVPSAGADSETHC

[8] = test system: STZ-induced mechanical allodynia; experiment: STZ-induced diabetic rats, subsequent study; assay type: in vivo, rat
Method: as §1
In a subsequent study, the same STZ paradigm was followed. However, in addition to the 100 mg/kg Compound 1 group, two additional cohorts received the Compound 1 100 mg/kg dose split into two or three doses per day with 50 mg/kg BID and 33 mg/kg TID. In addition to the gabapentin (100 mg/kg PO) group, a separate cohort received duloxetine (30 mg/kg PO). Additionally, in this study mechanical threshold testing was implemented every day immediately prior to dosing and 2 h post-dose for 7 days.

[9] = test system: incision-induced hyperalgesia; experiment: Brennan protocol, treatment paradigm (established hyperalgesia); assay type: in vivo, rat
Text: Two incisional pain models were used to assess Compound 1 effects on hyperalgesia. The first model is referred to as the Brennan model in which, under anesthesia, a 1 cm longitudinal incision to the skin and underlying fascia of a rat hindpaw is made. The second is a variation but is a more invasive procedure in which the skin and muscle are spread apart using forceps which creates a longer-lasting hypersensitivity.
Using the Brennan protocol and a treatment paradigm in rat, Compound 1 (10 and 30 mg/kg PO), morphine (3 mg/kg SC) or vehicle were administered daily at 24 h post-incision, and again at 48 and 72 h post-incision. Mechanical thresholds were obtained at 1 h and 2 h post-dose in all cohorts on all days.

T1 sequence (P08183 whole entry): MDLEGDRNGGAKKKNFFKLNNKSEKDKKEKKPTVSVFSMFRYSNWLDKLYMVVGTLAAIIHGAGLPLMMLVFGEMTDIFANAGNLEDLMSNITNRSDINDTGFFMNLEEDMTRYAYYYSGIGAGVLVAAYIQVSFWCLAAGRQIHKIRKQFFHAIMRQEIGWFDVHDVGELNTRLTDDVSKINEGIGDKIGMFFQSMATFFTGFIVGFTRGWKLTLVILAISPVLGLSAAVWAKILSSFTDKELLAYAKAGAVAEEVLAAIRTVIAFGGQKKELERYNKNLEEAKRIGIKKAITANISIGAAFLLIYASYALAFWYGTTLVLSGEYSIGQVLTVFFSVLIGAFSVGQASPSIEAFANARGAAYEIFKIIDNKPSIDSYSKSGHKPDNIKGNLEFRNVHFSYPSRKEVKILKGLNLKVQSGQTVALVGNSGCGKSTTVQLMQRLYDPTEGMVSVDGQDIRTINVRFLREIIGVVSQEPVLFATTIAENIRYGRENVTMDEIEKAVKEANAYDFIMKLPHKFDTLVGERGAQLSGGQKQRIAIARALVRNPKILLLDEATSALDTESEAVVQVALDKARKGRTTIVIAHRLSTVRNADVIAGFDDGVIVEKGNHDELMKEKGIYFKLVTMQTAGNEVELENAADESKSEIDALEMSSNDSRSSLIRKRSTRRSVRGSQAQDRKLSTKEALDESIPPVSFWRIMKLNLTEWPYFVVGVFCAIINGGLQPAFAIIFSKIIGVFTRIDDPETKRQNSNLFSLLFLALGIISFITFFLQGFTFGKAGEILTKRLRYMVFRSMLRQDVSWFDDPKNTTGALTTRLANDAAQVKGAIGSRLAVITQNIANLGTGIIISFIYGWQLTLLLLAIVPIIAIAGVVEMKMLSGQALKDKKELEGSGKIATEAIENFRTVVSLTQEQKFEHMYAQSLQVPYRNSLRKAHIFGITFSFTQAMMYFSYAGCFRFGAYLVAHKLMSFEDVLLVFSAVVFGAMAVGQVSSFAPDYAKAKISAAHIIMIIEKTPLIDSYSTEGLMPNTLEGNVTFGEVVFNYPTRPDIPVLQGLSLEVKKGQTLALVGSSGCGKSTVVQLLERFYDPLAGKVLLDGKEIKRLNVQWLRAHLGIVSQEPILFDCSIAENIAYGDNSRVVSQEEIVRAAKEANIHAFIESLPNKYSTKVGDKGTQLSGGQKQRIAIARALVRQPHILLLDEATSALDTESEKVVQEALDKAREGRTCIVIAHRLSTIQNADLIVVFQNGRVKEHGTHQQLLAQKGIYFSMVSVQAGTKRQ

CC1(C)SC(Nc2ccccc2O)=N[C@@H]1C(=O)O.Cl [Compound 1, (R)-2-(2-hydroxyphenylamino)-5,5-dimethyl-4,5-dihydrothiazole-4-carboxylic acid mono-hydrochloride]
hyperalgesia (mechanical thresholds) [1]: not hyperalgesic | stability in hepatocytes ([2]; dog hepatocytes, mono-hydrochloride): stable; also recorded: metabolic stability | stability in hepatocytes ([2]; human hepatocytes, mono-hydrochloride): stable; also recorded: metabolic stability | stability in hepatocytes ([2]; monkey hepatocytes): metabolic stability | stability in hepatocytes ([2]; rat hepatocytes, mono-hydrochloride): stable; also recorded: metabolic stability | Compound 1 Concentration in Rat Plasma ([3]; Female, 0.5 h post-dose, mono-hydrochloride, 100 mg/kg): 34.3 µg/mL | Compound 1 Concentration in Rat Plasma, Average ([3]; Female, 1 h post-dose): 60.1 µg/mL | Compound 1 Concentration in Rat Plasma ([3]; Female, 1 h post-dose, mono-hydrochloride, 100 mg/kg): 53.9 µg/mL | Compound 1 Concentration in Rat Plasma, Average ([3]; Female, 4 h post-dose): 22.6 µg/mL | Compound 1 Concentration in Rat Plasma ([3]; Male, 0.5 h post-dose, mono-hydrochloride, 100 mg/kg): 13.8 µg/mL | Compound 1 Concentration in Rat Plasma, Average ([3]; Male, 1 h post-dose): 14.9 µg/mL | Compound 1 Concentration in Rat Plasma, Average ([3]; Male, 2 h post-dose): 14.3 µg/mL | Compound 1 Concentration in Rat Plasma ([3]; Male, 2 h post-dose, mono-hydrochloride, 100 mg/kg): 16.3 µg/mL | Compound 1 Concentration in Rat Plasma ([3]; Male, 8 h post-dose, mono-hydrochloride, 100 mg/kg): 1.61 µg/mL | Compound 1 Concentration in Rat Plasma ([3]; Male, 24 h post-dose): BQL | mean Cmax ([3]; females): 60 µg/mL | t1/2 ([3]; females): 4 h | mean Cmax ([3]; males): 15 µg/mL | t1/2 ([3]; males): 7 h | epimerization in vivo (chiral column) ([3]; rat plasma): did not provide any evidence of epimerization | PN-mediated oxidation of small-molecule organic substrates such as luminol [4]: inhibits PN-mediated oxidation | reversal of allodynia (mechanical thresholds) ([5]; 10, 30, 100 mg/kg PO daily, subsequent days): statistically-significant | reversal of allodynia (mechanical thresholds) ([5]; 10, 30, 100 mg/kg PO, Day 0): non-significant reversal of allodynia | efficacy compared with gabapentin ([5]; repeated dosing, gabapentin 100 mg/kg PO, mono-hydrochloride): comparable to gabapentin | effect on allodynia, STZ diabetic neuropathy model (summary) ([5]; streptozotocin-induced, mono-hydrochloride): alleviates allodynia; also recorded: blocks STZ-induced mechanical allodynia | inhibition [6]: does not inhibit | inhibition [7]: does not inhibit | difference between dosing regimens ([8]; 100 mg/kg QD vs 50 mg/kg BID vs 33 mg/kg TID): no clear difference | reversal of allodynia ([8]; 100 mg/kg QD, 50 mg/kg BID, 33 mg/kg TID PO, 7 days, statistical significance from Day 1): reversed allodynia | reversal of hyperalgesia ([9]; 10 and 30 mg/kg PO, Day 2, 1 h and 2 h post-dosing): full reversal of hyperalgesia | hyperalgesia ([9]; 10 and 30 mg/kg PO, Day 3 prior to dosing): did not show hyperalgesia | hyperalgesia ([9]; low- and high-dose, Day 3 after dosing): prevented/reversed hyperalgesia completely | reversal of hyperalgesia ([9]; low-dose (10 mg/kg PO), Day 1, 2 h post-dose): partial reversal
